The results in this text go back to patent US9937227B2, “Humanin, analogs and cancer treatment methods and uses thereof” (LOS ANGELES BIOMEDICAL RESEARCH INSTITUTE AT HARBOR-UCLA …, priority 2014, dated 2018).

Where “and” joins values, the source holds several entries; their conditions need not be identical. Identical values can stand only once.

Holding throughout (type): in vivo
For one series, the system named is ovaries. The note with it: HNG 5 mg/kg/day IP or CP 100 mg/Kg single IP, day 14. Here is the method:
A mouse mammary cancer model was used which utilizes 4T1 cells transfected with the luciferase gene. Growth and size of 4T1 mammary tumors were detected by bioluminescence imaging (IVIS Luminia II, Perkin Elmer, Waltham, Mass.). Mice (n=5 to 7 per group) were inoculated with 1×10^6 4T1 cells into the right third mammary gland, and 7 days later they were left untreated or treated with HNG (5 mg/kg/day IP), CP (100 mg/Kg single IP) or HNG+CP for 14 days. Animals were sacrificed and both ovaries were removed from each mouse on day 14 after the start of treatment. Serial 5-micrometer sections were made. Every 5th section was examined and the number of primordial, primary, and secondary follicles counted (Kim S Y, et al., 2013; Bristol-Gould S K, et al., 2006; Roti Roti E C, et al., 2012). In addition, TUNEL staining for apoptotic cells and oocytes was quantified (Perez G I, et al., 1997; Ben-Aharon I, et al., 2010).

The subject of a further series is male germ cells. The note with it: middle stages (VII-VIII); same doses; 24 hours; monohydrate. Here is the method: For the HN analog experiments, male mice were divided into seven groups (n=4-5 per group) and received one of the following treatments and sacrificed after 24 hours: 1) vehicle (control); 2) a single intra-peritoneal (IP) injection of HN peptide [HN, 40 mg/Kg body weight (BW)]; 3) a single IP injection of CP (CP, 200 mg/Kg BW); 4) IP injection of CP and HN (CP+HN); 5) a single IP injection of each HN analog (HNG 5 mg/Kg BW, HNG-F6A 5 mg/Kg BW, HN-S7A 40 mg/Kg BW, HN-C8P 40 mg/Kg BW, or HN-L12A 40 mg/Kg BW); 6) IP injection of CP and each HN analog (CP+HNG, HNG-F6A, HN-S7A, HN-C8P, or HN-L12A); and 7) IP injection of CP+HN+HN analog (HN-S7A, HN-C8P, or HN-L12A; to assess whether the analogs has enhancing or inhibitory effect on HN).
To facilitate testicular fixation by using a whole-body perfusion technique, all animals were injected with heparin (130 IU/100 g BW, IP) 15 min before a lethal injection of sodium pentobarbital (200 mg/kg BW, IP) (Lue Y H, et al., 1999). One testis was removed and weighed after perfusion with saline. Portions of testicular parenchyma were snap frozen in liquid nitrogen, and stored at −80 C for Western blotting. The other testis was fixed by vascular perfusion with Bouin's solution, and processed with routine paraffin embedding for in situ detection of apoptosis.
Detection of apoptotic cells was performed in Bouin's'-fixed, paraffin-embedded testicular sections by the terminal deoxynucleotidyl transferase (TdT)-mediated deoxy-UTP nick end labeling (TUNEL) technique (Sinha Hikim A P, et al., 1997) using an ApopTag-peroxidase kit (Chemicon International, Inc., Temecula, Calif.). Enumeration of the Sertoli cell nuclei with distinct nucleoli and apoptotic germ cell population was quantified at stages I-IV (early stages), stages VII-VIII (middle stages) and stages XI-XII (late stages) of the seminiferous epithelial cycle using an Olympus BH-2 microscope (New Hyde Park, N.Y.). Stages were identified according to the criteria proposed by Russell et al for paraffin sections (Russell L, 1977). The rate of germ cell apoptosis (apoptotic index, AI) was expressed as the number of apoptotic germ cells per Sertoli cells (Sinha Hikim A P, et al., 1997).

The test system of series [1] is B16 murine melanoma cells. The series is described as follows: Metastatic lung tumors in mouse B16 melanoma model (Experiments 3 and 4). Here is the method: A total of 25 young adult mice (10-12 weeks) were randomly divided into 5 groups (n=5 per group). Five mice were used as control. Twenty mice were inoculated intravenously with B16 murine melanoma cells (2×10^5 cells/mouse). Among these 20 tumor-inoculated mice, 5 mice received no further treatment. After one week, the remaining 15 mice were divided into 3 groups and injected with: 1) HNG daily IP (5 mg/Kg body weight) for 2 weeks; 2) CP (200 mg/Kg body weight IP single injection); 3) combined CP with HNG treatment (same doses as above). All mice were sacrificed 3 weeks after tumor inoculation, and 2 weeks after HNG and/or CP treatment. The animals were sacrificed with 5% pentobarbital (200 mg/kg body weight) IP injection after which blood was collected from the right atrium of the heart. One of the testes from each mouse was immersed fixed in Bouin's solution, and the mice were perfused with saline and subsequently perfuse-fixed with 5% glutaraldehyde in 0.05 M cacodylate buffer (pH 7.4). The lungs were dissected out and post fixed in 5% glutaraldehyde solution for 24 hours and stored in cacodylate buffer at 4° C. for the subsequent tumor count (Lue, et al., 2010; Lue, et al., 2009).
Experiment 3 was repeated after inoculation of B16 melanoma tumor at week 1 and then treated with the following treatment starting at week 2 (n=5 mice per group): 1). No treatment; 2). HNG IP injections 5 mg/Kg daily; 3) CP 200 mg/Kg single IP injection; 4) HNG 5 mg/Kg/day+CP; 5). HNG IP injections 15 mg/Kg daily; and 6). HNG 15 mg/Kg/day+CP. All animals were euthanized and perfused with 4% paraformaldehyde at the end of week 3. Lungs and testes were collected and processed as in experiment 3. Methods
B16 melanoma tumors in the lung were quantified by counting the number of tumors on the surface of the lungs under stereomicroscopy (Collisson, et al., 2003; Craft, et al., 2005). The size of the tumor was measured using histomorphometry and expressed as average size of tumor. The appearance of the melanoma cells were reviewed and characterized by an expert pathologist.

Turning to `O=P1(N(CCCl)CCCl)NCCCO1` (stereo not shown) [CP, cyclophosphamide monohydrate], the “ovarian follicles in representative sections” value in the series on ovaries was “less secondary, but more atretic follicles”. Besides, the “apoptotic index (AI, apoptotic germ cells per Sertoli cell)” value in the series with male germ cells was 0.25±0.03 and 0.33±0.03. Also, the “number of metastatic tumors on the surface of the lungs vs non-treated tumor-bearing mice” value in series [1] (Experiment 3, HNG 5 mg/Kg daily IP 2 weeks or CP 200 mg/Kg single IP) is recorded as “decreased number of tumors”. Also, in series [1] (Experiment 3, HNG 5 mg/Kg daily or CP 200 mg/Kg single IP), the “size of the melanoma metastasis on the surface of the lungs” value was “decreased number of tumors but also tumor size”. Also, the “number of lung tumors vs non-treated tumor-bearing mice” value in series [1] (Experiment 4, HNG 5 mg/kg BW daily or CP 200 mg/Kg single IP) was “significantly decreased both the number and size of the tumors”. Also, the “size of the lung tumors vs non-treated” value in series [1] (Experiment 4, HNG 5 and 15 mg/kg BW, CP 200 mg/Kg) was “significantly decreased both the number and size of the tumors”. Also, the “lung metastatic melanoma histology (differentiation of melanoma cells)” value in series [1] (HNG 5 mg/kg BW, CP, or combination) is on record as “minor differentiation”.
